# Test results taken from a melting point compilation (Tetko et al.; mined from patent text by program, amines drawn as free bases though some values may be those of a salt).
row,melting point,Structure (SMILES)
1,130 to 145 °C,CCC1(C)CC(=NO)C(C)C(C)(CC)N1OC(C)c1ccccc1 (stereo not given)
2,72 °C,CCOC(=O)CCNCC(O)COc1cccc(OC)c1 (stereo not given)
3,151 to 153 °C,Cc1ncc(CN2CCc3ccc(OCc4ccccc4)cc3C2)c(N)n1
4,138 °C,CCCNC(=O)N1c2ccc(S(=O)(=O)n3cc(-c4ccccc4)[nH]c3=O)cc2CC1C (stereo not given)
5,188 to 191 °C,Cc1nc(N2CCN(Cc3ccc(F)cc3)C2=O)sc1C(=O)NCc1cocn1
6,239 to 241 °C,COc1ccc(N2CCN(Cc3cnc(N)nc3N)CC2)cc1
7,89 to 91 °C,COC(=O)Cn1sc2ccccc2c1=O
8,235 to 237 °C,C=CCC1(CC=C)c2cc(-c3ncncn3)ccc2-c2ccc(N(c3ccccc3)c3ccccc3)cc21
9,47 °C,COC(=O)c1snnc1C1CC1
10,118 to 119 °C,CSCc1nnnn1C1CCN(c2ccc(N3C[C@H](CNC(C)=O)OC3=O)cc2F)CC1
11,101 to 104 °C,C(=C/c1cn(C(c2ccccc2)(c2ccccc2)c2ccccc2)cn1)/CCOCc1ccccc1
12,45 to 50 °C,CC(=O)C(=NNc1ccccc1)C(=O)OCC(C)C
13,116 to 118 °C,CCOC(=O)c1c(CN(CC)CC)nc2sc(C)c(C)c2c1-c1ccc(OC)cc1
14,130 to 139 °C,CCCn1nc2c(N)nc3ccccc3c2c1CC(C)(C)NS(C)(=O)=O
15,78 to 79 °C,Cc1oc(-c2ccccc2)nc1CCOc1ccc(CCCBr)cc1
16,132 to 133 °C,Cn1cc(C(=O)c2ccc3ccccc3c2)cc1C(=O)c1cccnc1
17,99 to 102 °C,COc1ccc(N(C(=O)OC(C)(C)C)S(=O)(=O)c2ccc(F)cc2)cc1OC
18,145 °C,NC(=O)C1CCCc2ccc(-c3ccccc3)nc21 (stereo not given)
19,159 to 161 °C,CC(=O)c1noc2cc(O)ccc12
20,209 to 211 °C,COc1cc(C(C)C)c2oc3ccccc3c2c1C(=O)Nc1c(Cl)cncc1Cl
21,149 to 150 °C,COc1cc(COc2nn(-c3ccccc3)cc2C=O)ccc1OCc1nc(N2CCOCC2)sc1C
22,145 to 146 °C,CCCc1nc2c(N)nc(C)c(C)c2n1CCCCCS(C)(=O)=O
23,84.4 to 85.4 °C,CC(=O)O[C@H]1CC[C@H](c2ccc(I)cc2)CC1
24,62.5 to 63.5 °C,NS(=O)(=O)Oc1ccccc1Cl

row,melting point,Structure (SMILES)
1,60 °C,COCCCNCc1noc([C@H](CCCC2CCCCC2)CC(=O)NO)n1
2,54 to 64 °C,COCCN1CCc2cc(Nc3ncc(Cl)c(Nc4ccccc4S(=O)(=O)N(C)C)n3)c(OC)cc2CC1
3,236 to 239 °C,COc1cc2c3c(cccc3c1)C(=O)N(O)C2=O
4,267 to 269 °C,Cc1cc(CN=C(O)c2cc(C(O)=NCc3cc(C)c(O)c(C(C)(C)C)c3)c(C(=O)O)cc2C(=O)O)cc(C(C)(C)C)c1O
5,110 to 112 °C,Cc1nc2ccc(CN(CCO)c3ccc(C(=O)NCc4cccc(C#N)c4)cc3)cc2c(=O)[nH]1
6,187 to 189 °C,O=C(Nc1ccc(Br)c2ccccc12)c1cc(F)cc(N2CCOCC2)c1
7,207 to 210 °C,O=C(COc1ccc(C(=O)C=CC(=O)N2CCCCC2)c(O)c1)Nc1nc2ccccc2s1
8,228 to 230 °C,CC(C)(CC(=O)Nc1ccc2oc(-c3ccc4ccc(Cl)cc4n3)cc2c1)C(=O)O
9,94 to 96 °C,Clc1ccc(N2CCN(CCC3OCCc4cc(Br)ccc43)CC2)cc1 (stereo not given)
10,208 to 210 °C,COc1ccc(N)c(OC)c1COc1cccc2ccc(C)nc12
11,166 to 167 °C,NNC(=S)c1ccc2ccccc2c1
12,> 250 °C,Nc1nc2c(ncn2C2C=CC(CO)O2)c(=O)[nH]1 (stereo not given)
13,210 to 211 °C,O=CC(=Cc1ccccc1OCc1ccc(Br)cc1)C(C=O)=Cc1ccccc1OCc1ccc(Br)cc1
14,165 to 166 °C,COc1cc(C)c(Nc2nnc3n2C(c2ccc(F)cc2)CSC3)cc1OC (stereo not given)
15,210 to 212 °C,CCCOc1ccc2c(c1)[C@H](c1ccc(OC)cc1OCC(=O)O)[C@@H](CC(=O)O)[C@@H]2c1ccc2c(c1)OCO2 (racemic)
16,182 to 184 °C,CC(=O)c1ccc(-c2cc(N3CCCCC3)c(C#N)c3c2-c2ccccc2C3)cc1
17,186 to 188 °C,Fc1cccc(CN2CCN=C2S)c1
18,184 to 186 °C,CCOC(=O)COc1cc(O)ccc1C(=O)c1ccc(OCc2nc(-c3ccccc3)oc2C)cc1
19,175 to 176 °C,O=C(O)[C@@H]1C[C@H](C2CCCCC2)CN1C(=O)CP(=O)(O)CCCCc1ccccc1
20,85 °C,COc1ccccc1C(CSc1ccccc1N)C(=O)O (stereo not given)
21,40 to 41 °C,CCCCCCCCCCCCCCCCCCNC(=O)SCC(COCc1ccccc1)OC (stereo not given)
22,140 to 141 °C,Cc1cc(NC(=O)C(=O)N2C(C)COCC2C)cc(C)c1S(=O)(=O)C[N+](=O)[O-] (stereo not given)
23,147 to 148 °C,Cc1nc(-c2ccc3c(c2)OCC32C(=O)N(Cc3ccccn3)c3ccccc32)no1 (stereo not given)
24,129 to 131 °C,CC1(c2ccc(COc3ncc(Br)s3)cc2)OCCO1

row,melting point,Structure (SMILES)
1,202 °C,COc1cc(Nc2nccc(-c3cn(S(=O)(=O)c4ccccc4)c4ccccc34)n2)cc(OC)c1OC
2,133 to 135 °C,O=C(NCCCCC(NS(=O)(=O)c1ccc2oc3ccccc3c2c1)C(=O)O)OCc1ccccc1 (stereo not given)
3,175 to 176 °C,Cc1cc(C[C@@H](NC(=O)c2cccc3c2C=CCCC3)[C@@H](O)c2ccc(F)cc2)cc(OC(F)(F)C(F)F)c1 (racemic)
4,66 to 68 °C,CCOC(=O)CNC(=O)n1nc(Oc2cccc(C(F)(F)F)c2)cc1C
5,196 °C,CCCn1c(=O)c(C#N)c(N2CCN(C(=O)c3cccs3)CC2)c2cccnc21
6,135 to 136 °C,CCc1nc(-c2ccc(OCCCN3C(=O)c4ccccc4C3=O)cc2)no1
7,193 to 195 °C,Cc1cc(NC(=O)C(CS)CC(C)C)cc(C(=O)O)c1 (stereo not given)
8,164 to 166 °C,COc1ccc(C2=NN(C3CCN(S(C)(=O)=O)CC3)C(=O)CC2)cc1OC
9,118 °C,COc1cc(Cl)cnc1OCC#Cc1cccc(OCC#N)n1
10,140 to 142 °C,COc1nc2cc([N+](=O)[O-])c(C)c(C(=O)NCCC(=O)OC(C)(C)C)c2nc1OC
11,158 °C,CC(C(=O)NC1Cc2ccccc2CC1O)c1ccccc1 (stereo not given)
12,68 to 69 °C,CC(C)(C(=O)c1ccc(S)cc1)N1CCOCC1
13,240 to 241 °C,Cc1cc(=O)n2cccc(S)c2n1
14,154 to 156 °C,O=C1NCCN1c1ccccc1
15,110 to 120 °C,COCCc1nc2c(N)nc(C)c(C)c2n1NC1CCOCC1
16,144 to 145 °C,O=C1C2CCCC2=Nc2ccccc2N1Cc1ccc(Cl)cc1Cl (stereo not given)
17,100 to 110 °C,CC(=O)OC1COC(n2c(Br)nc3cc(Cl)c(Cl)cc32)C(OC(C)=O)C1OC(C)=O (stereo not given)
18,151 to 153 °C,Oc1cccc2c1CCCC2N1CCCC1 (stereo not given)
19,> 210 °C,CC1(C)COC(=O)N1c1nc(-c2cccc([N+](=O)[O-])c2)cs1
20,95 to 97 °C,OC1(c2ccc(C3OCCO3)cc2)CCCCC1
21,131 to 132 °C,CC1=C(C(=O)O)C(c2cccc([N+](=O)[O-])c2)C(C(=O)OCCC#N)=C(C)N1 (stereo not given)
22,175 to 178 °C,CC(C)(C)NC(=O)[C@@H]1CNNC1=O
23,> 280 °C,CC(C)(C)c1ccc(C(=O)n2c3cc(O)c(O)cc3c3c(Br)cc(O)c(O)c32)cc1
24,102 to 104 °C,CCOC(=O)CC(Cc1ccccc1)NC(=O)c1ccc(OC)cc1 (stereo not given)

row,melting point,Structure (SMILES)
1,161 °C,CC(=O)Nc1ccc2[nH]c(CO)cc2c1
2,116 to 118 °C,CC(=O)Oc1c(Cl)c(C(C)(C)C)oc(=O)c1-c1c(C)cc(C)cc1C
3,140 to 142 °C,O=C(O)[C@@H](Cc1ccccc1)Oc1c(Br)cc(-c2c3ccccc3c(Br)c3sc4ccccc4c23)cc1Br
4,305 to 308 °C,N#Cc1cnc2c(sc3ccccc32)c1Cl
5,151 to 153 °C,COc1ccc(S(=O)(=O)Nc2cccc3c2N(C)c2ccccc2O3)cc1
6,89 °C,CCCCCCCCCCCC(=O)N[C@@H](Cc1ccc(O)cc1)C(=O)OC
7,186 °C,Cc1ccc2c(c1NC(=O)NCC1(c3ccccc3)CCCC1)OC(C)(C)C2
8,281 °C,O=C(O)CCC(=O)c1ccc2[nH]c3nc(Cl)ccc3c2c1
9,202 to 205 °C,CN(N)C(=O)c1ccc(O)c(O)c1
10,129 to 131 °C,OCc1ccc(I)cc1O
11,178 to 179 °C,COc1ccc(CCC(=O)C2CCC3C4CCc5cc(C(=O)O)ccc5C4CCC23C)cc1 (stereo not given)
12,> 300 °C,Sc1cc(Cl)nc2ncnn12
13,254 to 256 °C,CSc1ncc(Br)c(N(C)NC(=O)c2c(Cl)cccc2Cl)n1
14,121 to 123 °C,COc1ccc(-n2c(C)nc3ccccc32)cc1
15,199 to 202 °C,COc1ccc(CC(NC(c2ccccc2)c2ccccc2)P(O)O)cc1 (stereo not given)
16,225 to 226 °C,Cc1cc(Nc2ccccn2)c(S(C)(=O)=O)cc1C(=O)N=C(N)N
17,108 to 111 °C,O=C(Nc1ccccc1S(=O)(=O)NCCCn1cccn1)c1cccc(C(F)(F)F)c1
18,235 to 240 °C,N#Cc1ccc(Nc2ccc(C(F)(F)F)cc2Nc2ccc(C#N)cc2C(=O)O)c(C(=O)O)c1
19,> 270 °C,O=C(O)c1ccc(-c2ccc(NC(=O)C(F)(F)F)cc2)[nH]c1=O
20,140 to 141 °C,CCCCCCCNC(=O)N(C)c1cccc(-c2ccc(CC(OCC)C(=O)O)cn2)c1 (stereo not given)
21,181 to 183 °C,N#Cc1ccc(OCc2cccnc2)cc1OC(CCC(=O)O)c1cccc2c1OCO2 (racemic)
22,270 °C,CC(C)(C)OC(=O)N[C@@H](Cc1c[nH]c2ccccc12)c1nc2c(C(F)(F)F)cccc2c(O)c1C(=O)Nc1nccs1

row,Structure (SMILES),melting point
1,O=C(c1ccc(Cl)cc1)c1ccc2c(c1)C(c1cccc(Cl)c1)=NCc1nnnn1-2,220 °C
2,CN1Cc2c(C(=O)O)ncn2-c2ccccc2C1=O,287 °C
3,CCCc1nc(N)nc(N)c1N1CCNCC1,175 to 176 °C
4,OCCCCNC1CCCCC1,48 to 50 °C
5,NP(N)(=O)NC(=O)c1ccc2ccccc2c1,> 400 °C
6,N#Cc1nn(-c2c(Cl)cc(C(F)(F)F)cc2Cl)c(N)c1C#CCO,237 to 239 °C
